From patent US12686687B2, “Compounds and uses thereof” (Foghorn Therapeutics Inc., priority 2019, dated 2026) come the findings set out here.

SMILES strings stand for the structures. Where only a bound is given, the exact number is not on record here.

The first assay has as its target T1, Nanoluciferase-BRD9 fusion protein (3×FLAG-NLuc-BRD9) in SYO-1 cells (Homo sapiens, UniProt Q9H8M2).
T1 construct: expressed in transfected cells; host or cells: SYO-1
T1 sequence (Q9H8M2 1-597): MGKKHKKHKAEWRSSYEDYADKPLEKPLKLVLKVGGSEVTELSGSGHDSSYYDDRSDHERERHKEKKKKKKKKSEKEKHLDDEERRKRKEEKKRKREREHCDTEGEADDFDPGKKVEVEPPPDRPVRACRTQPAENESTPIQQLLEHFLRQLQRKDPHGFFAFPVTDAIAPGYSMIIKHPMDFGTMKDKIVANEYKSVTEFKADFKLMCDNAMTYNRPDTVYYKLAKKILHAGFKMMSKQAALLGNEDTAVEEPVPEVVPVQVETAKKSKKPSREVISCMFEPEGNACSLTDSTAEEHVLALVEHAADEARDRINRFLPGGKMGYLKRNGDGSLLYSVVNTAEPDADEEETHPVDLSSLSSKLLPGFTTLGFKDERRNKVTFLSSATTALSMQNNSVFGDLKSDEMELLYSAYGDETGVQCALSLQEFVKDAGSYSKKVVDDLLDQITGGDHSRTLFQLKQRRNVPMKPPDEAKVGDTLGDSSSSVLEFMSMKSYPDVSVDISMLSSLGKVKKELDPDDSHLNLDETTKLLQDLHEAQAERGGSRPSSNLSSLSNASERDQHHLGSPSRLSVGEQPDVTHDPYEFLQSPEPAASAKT
The assay can be described thus: SYO1 BRD9 NanoLuc degradation assay. It counts as cell-based. To be noted: Table 6B; SYO-1 cells expressing 3×FLAG-NLuc-BRD9, 6 hours incubation, 1 μM top dose; read-out: SYO1 BRD9-NanoLuc degradation IC50. Here is the method: Procedure: A stable SYO-1 cell line expressing 3×FLAG-NLuc-BRD9 was generated. On day 0 cells were seeded in 30 μL media into each well of 384-well cell culture plates. The seeding density was 8000 cells/well. On day 1, cells were treated with 30 nL DMSO or 30 nL of 3-fold serially DMSO-diluted compounds (10 points in duplicates with 1 μM as final top dose). Subsequently plates were incubated for 6 hours in a standard tissue culture incubator and equilibrated at room temperature for 15 minutes. Nanoluciferase activity was measured by adding 15 μL of freshly prepared Nano-Glo Luciferase Assay Reagent (Promega N1130), shaking the plates for 10 minutes and reading the bioluminescence using an EnVision reader. • Results: The Inhibition % was calculated using the following formula: % Inhibition=100×(LumHC−LumSample)/(LumHC−LumLC). DMSO treated cells are employed as High Control (HC) and 1 μM of a known BRD9 degrader standard treated cells are employed as Low Control (LC).
On to `COc1cc(-c2cn(C)c(=O)c3cc(C(=O)NC4CCN(C5CCN(c6ccc7c(c6)CN(C6CCC(=O)NC6=O)C7=O)CC5)CC4(F)F)sc23)cc(OC)c1CN(C)C` (stereo not drawn) [Compound D25], for which the DC50 was below 10 nM.

As to `COc1cc(-c2cn(C)c(=O)c3cc(C(=O)NC4CC5CC4CN5CCCN4CCN(c5ccc6c(c5)C(=O)N(C5CCC(=O)NC5=O)C6=O)CC4)sc23)cc(OC)c1CN(C)C` (stereo not drawn) [Compound D69], the DC50 was above 10 nM.

Take `COc1cc(-c2cn(C)c(=O)c3cc(C(=O)NC4CCN(C(=O)CCCCOc5cccc6c5C(=O)N(C5CCC(=O)NC5=O)C6=O)CC4)sc23)cc(OC)c1CN1CCC1` (stereo not drawn) [Compound D29]: the DC50 was below 10 nM.

In the case of `COc1cc(-c2cn(C)c(=O)c3cc(C(=O)NCC4CC5(CCN(C(=O)CCN6CCN(c7ccc8c(c7)C(=O)N(C7CCC(=O)NC7=O)C8=O)CC6)CC5)O4)sc23)cc(OC)c1CN(C)C` (stereo not drawn) [Compound D61], the DC50 was above 100 nM.

`COc1cc(-c2cn(C)c(=O)c3cc(C(=O)NC4CCC45CCN(C(=O)CCN4CCN(c6ccc7c(c6)C(=O)N(C6CCC(=O)NC6=O)C7=O)CC4)CC5)sc23)cc(OC)c1CN(C)C` (stereo not drawn) [Compound D54]: the DC50 was above 100 nM.

Consider `COc1cc(-c2cn(C)c(=O)c3cc(C(=O)NC4CCN(CCCCCOc5cccc6c5C(=O)N(C5CCC(=O)NC5=O)C6=O)CC4(F)F)sc23)cc(OC)c1CN(C)C` (stereo not drawn) [Compound D16], for which the DC50 was below 10 nM.

Still in this assay, the particulars now being: Table 6C; SYO-1 cells expressing 3×FLAG-NLuc-BRD9, 6 hours incubation, 1 μM top dose; read-out: SYO1 BRD9-NanoLuc degradation IC50.
Turning to `COc1cc(OC)cc(-c2cn(C)c(=O)c3cc(C(=O)NC4CCN(c5ccc6c(c5)C(=O)N(C5CCC(=O)NC5=O)C6)CC4(F)F)sc23)c1` (stereo not drawn) [Compound D131], the DC50 was below 10 nM.

As for `[2H]C([2H])([2H])n1cc(-c2cc(OC)c(CN3CCN(c4ccc5c(c4)C(=O)N(C4CCC(=O)NC4=O)C5)CC3)c(OC)c2)c2sccc2c1=O` (stereo not drawn) [Compound D147], the DC50 was below 10 nM.

As to `COc1cc(-c2cn(C)c(=O)c3cc(C(=O)NC4CCN(C(=O)c5csc(C(=O)c6c[nH]c7ccccc67)n5)CC4(F)F)sc23)cc(OC)c1CN(C)C` (stereo not drawn) [DD1], the DC50 was above 1000 nM.

Regarding `COc1cc(-c2cn(C)c(=O)c3sccc23)cc(OC)c1CN1CCC2(CC1)CN(c1ccc3c(c1)C(=O)N(C1CCC(=O)NC1=O)C3)C2` (stereo not drawn) [Compound D207], the DC50 was below 10 nM.

Consider `COc1cc(-c2cn(C)c(=O)c3cc(C(=O)NC4CC5(CCN(c6ccc7c(c6)C(=O)N(C6CCC(=O)NC6=O)C7)CC5)C4)sc23)cc(OC)c1CN(C)C` (stereo not drawn) [Compound D149], for which the DC50 was below 10 nM.

For `COc1cc(-c2cn(C)c(=O)c3ccsc23)cc(OC)c1CN1CCN(C(=O)c2csc(C(=O)c3c[nH]c4ccccc34)n2)CC1` [DD2], the DC50 is above 1000 nM.

Consider `CCc1cc(-c2cn(C)c(=O)c3cc(C(=O)NC4CCN(C5CCN(c6ccc7c(c6)C(=O)N(C6CCC(=O)NC6=O)C7)CC5)CC4(F)F)sc23)cc(OC)c1CN(C)C` (stereo not drawn) [Compound D157], for which the DC50 is below 10 nM.

As to `COc1cc(-c2cn(C)c(=O)c3cc(C(=O)NC4CCN(c5ccc6c(c5)C(=O)N(C5CCC(=O)NC5=O)C6)CC4(F)F)oc23)cc(OC)c1CN(C)C` (stereo not drawn) [Compound D218], the DC50 is above 10 nM.

Regarding `COc1cc(-c2cn(C)c(=O)c3cc(C(=O)N[C@@H]4CCN(C5CCN(c6ccc7c(c6)C(=O)N([C@@H]6CCC(=O)NC6=O)C7)CC5)CC4(F)F)sc23)cc(OC)c1CN(C)C` [Compound D135], the DC50 was below 10 nM.

Consider `COc1cc(-c2cn(C)c(=O)c3cc(C(=O)NC4CCN(c5ccc6c(c5)C(=O)N(C5CCC(=O)NC5=O)C6)CC4(F)F)sc23)cc(OC)c1CN(C)C` (stereo not drawn) [Compound D165], for which the DC50 is below 10 nM.

Turning to `COc1cc(-c2cn(C)c(=O)c3cscc23)cc(OC)c1CN1CCC2(CC1)CN(c1ccc3c(c1)C(=O)N(C1CCC(=O)NC1=O)C3)C2` (stereo not drawn) [Compound D216], the DC50 was below 10 nM.

As to `COc1cc(-c2cn(C)c(=O)c3cc(C(=O)N[C@@H]4CCN(c5ccc6c(c5)CN(C5CCC(=O)NC5=O)C6=O)CC4(F)F)sc23)cc(OC)c1CN(C)C` (stereo partly drawn) [Compound D155], the DC50 is below 10 nM.
